# How the values were obtained:
# [1] = tested on: Kuramochi cells labeled with mApple-H2B; assay: IncuCyte cell proliferation assay; type: cell-based; conditions: Kuramochi RB-WT, cell count 0 to 72 hours; method calls it GI50
# Description: IncuCyte® assay was used to measure the effect of disclosed compounds on cell proliferation. Fluorescent microscopy images of cells were taken immediately after compound treatment and 72 hours later. Image analysis software was used to obtain cell counts as a function of compound concentration. Kuramochi cells labeled with mApple-H2B were seeded on 384-well assay-ready plates. Plates were placed in an IncuCyte® (Sartorius) and scanned at 0 and 72 hours. IncuCyte® software was used to count the number of fluorescent nuclei in each well. The fold change in cell count from 0 to 72 hours in wells treated with increasing compounds concentrations (10 pts, 1/2 log dilution, 20 μM top concentration) was normalized to DMSO control wells. The normalized cell counts were fit with dose response curves and a GI50 was calculated.
# CDK2/Cyclin E1 [2] = biological target: T1, CDK2/Cyclin E1 (Homo sapiens (Human), UniProt P24941); assay: ADP-Glo Luminescent Kinase Assay, ADPGLO (CDK2/E1-37C); type: biochemical; conditions: 0.18 nM CDK2/Cyclin E1, 100 μM ATP, 1.5 μM Histone H1, 37° C.; read-out: Pharmaron ADPGLO (CDK2/E1-37C): IC50
# Description: Inhibition of CDK2/Cyclin E1 activity by the presence of small molecules was evaluated using ADP-Glo Luminescent Kinase Assay (Promega). Activated CDK2/Cyclin E1 was incubated with its substrate Histone H1 (SignalChem H10-54N) in the kinase reaction buffer (100 μM ATP, 50 mM HEPES pH 7.5, 10 mM MgCl2, 1 mM EDTA, 2 mM DTT, 0.01% Brij35, 0.5 mg/mL BSA). Luminescence was recorded with an Envision plate reader (PerkinElmer).
# Dose titrations of inhibitors in 100% DMSO were combined with 0.36 nM CDK2/Cyclin E1 in reaction buffer. The mixtures were incubated for 60 minutes at 37° C. before the addition of ATP and Histone H1 substrate to initiate the kinase reaction. The final conditions were 0.18 nM CDK2/Cyclin E1, 100 μM ATP, and 1.5 μM Histone H1. The reactions were incubated at 37° C. for 90 minutes before being stopped with the addition of ADP-Glo reagent. This mixture was incubated at room temperature for 60 minutes before Kinase Detection Solution is added to generate luminescence. The stopped reactions were analyzed on an Envision plate reader. The conversion ratios were normalized to yield % activity, plotted against compound concentration, and fit to a four-parameter equation to determine the IC50 for each compound.
# CDK2/Cyclin E1 [3] = biological target: T1, CDK2/Cyclin E1; assay: Caliper LabChip EZ Reader mobility shift assay; type: biochemical; conditions: 2.5 nM CDK2/Cyclin E1 (14-475), 100 μM ATP, 1.5 μM fluorescent peptide; read-out: Caliper Assay (CDK2/CCNE1): IC50
# Description: Inhibition of CDK2/Cyclin E1 activity in the presence of compounds of the present disclosure was evaluated using a Caliper LabChip® EZ Reader mobility shift assay. In the assay, activated CDK2/Cyclin E1 catalyzes the phosphorylation of a fluorescently tagged peptide 5-FAM-QSPKKG-CONH2 (PerkinElmer, FL Peptide 18) which induces a difference in capillary electrophoresis mobility. The peptide substrate and product were measured, and the conversion ratio was used to determine the inhibition (as % activity and IC50 values) of CDK2/Cyclin E1. Reactions contained 50 mM HEPES pH 7.5, 10 mM MgCl2, 1 mM EDTA, 2 mM DTT, 0.01% Brij35, 0.5 mg/mL BSA, 0.1% DMSO, 2.5 nM CDK2/Cyclin E1 (14-475), 100 μM ATP, and 1.5 μM fluorescent peptide substrate.
# Dose titrations of inhibitors in 100% DMSO were combined with 3.25 nM CDK2/Cyclin E1 (14-475) and 130 μM of ATP in reaction buffer. The mixtures were incubated for 30 minutes before the addition of fluorescent peptide substrate to initiate the kinase reaction. The final conditions were 2.5 nM CDK2/Cyclin E1 (14-475), 100 μM ATP, and 1.5 μM fluorescent peptide. The reactions were stopped after 100 minutes with the addition of EDTA (6 mM final EDTA concentration). The stopped reactions were analyzed on a Caliper LabChip® EZ Reader II. The conversion ratios were normalized to yield % activity, plotted against compound concentration, and fit to a four-parameter equation to determine the IC50 for each compound.
# Kuramochi cells = assay: BrdU cell proliferation assay; type: cell-based; conditions: 96 h, developed on day 4, read-out: BrdU - KURAMOCHI.1: IC50
# Description: A BrdU assay was used as a measure of proliferation based on the DNA replication process of proliferating cells. BrdU, a pyrimidine analog, is added to the cell culture and incorporated into the DNA of proliferating cells. The presence of the BrdU analog was then measured through a colorimetric ELISA. After fixation and permeabilization of cells, peroxidase-conjugated antibody recognizing BrdU is added and allowed to incubate, followed by thorough washing to remove unbound antibody. In order to quantify the amount of bound antibody, peroxidase substrate is added and produces a color that can be measured at 450 nm.
# On day −1, Kuramochi cells (Sekisui XenoTech JCRB0098) were seeded at 2,000 cells/well in columns 2-12 of a 96 well plate (Corning, CLS3596) in 150 uL media and allowed to adhere overnight at 37 degree with 5% CO2. In order to assess specificity of the compounds, Kuramochi RB^KO cells were also plated and treated, as RB^KO cells were not expected to show a proliferative response to CCNE/CDK specific inhibitors.
# On day 0, the source plate was prepared by adding 10 mM compounds and performing 3-fold serial dilutions for a 4-point dose response of each compound. Using a multichannel pipette, 2 μL of the contents of the source plate were stamped into an intermediate plate with 500 μL of RPMI 1640 Media, GlutaMAX Supplement (Life Technologies. 61870127) in each well of a Nunc 96 DeepWell™ plate, non-treated 96 DeepWell plate, 2 mL/well, sterile, natural. 60/cs (Sigma Z717274) and mixed thoroughly. 50 uL from row A of this intermediate plate were added to rows A-H of one plate of previously seeded Kuramochi cells, and each subsequent row of the intermediate plate was added to a full plate of cells.
# On day 4, the plates were developed using the BrdU ELISA Cell Proliferation Assay according to manufacturer's instructions (Roche, 11647229001). Briefly, BrdU was diluted 1:100 in Gibco®. Opti-MEM® and 20 μL/well was added, shaken for 10 minutes at 350 rpm, and then returned to the incubator for 1 hour. Following incubation, the medium was discarded, and the cells were fixed by adding 200 μL of Fix/Denature solution. The anti-BrdU peroxidase antibody was diluted 1:1000 in OptiMEM, added at 100 μL/well, and incubated while shaking (350 rpm) for one hour. Three washes with PBS were performed to remove any unbound antibody, followed by the addition of 100 μL of substrate solution to each well. […] was then added to halt the reaction, and plates were read out using an Envision spectrophotometer (Perkin Elmer) set to read 450 nm absorbance. Background absorbance values from empty wells were subtracted from all samples and then normalized to DMSO treated wells.
IC50 (CDK2/Cyclin E1 [2]),IC50 (CDK2/Cyclin E1 [3]),Compound,IC50 [1],IC50 (Kuramochi cells)
–,1 to 10 µM,"C[C@@H](OCC1CCC(F)(F)CC1)[C@H](NC(=O)[C@@H]1CN(C(=O)c2cncs2)CC12CN(c1ncco1)C2)C(C)(C)O [Compound I-4, (S)-N-((3S,4R)-4-((4,4-difluorocyclohexyl)methoxy)-2-hydroxy-2-methylpentan-3-yl)-2-(oxazol-2-yl)-6-(thiazole-5-carbonyl)-2,6-diazaspiro[3.4]octane-8-carboxamide]",> 20 µM,> 10 µM
–,> 10 µM,"C[C@@H](OCC1CCCCC1)[C@H](NC(=O)[C@@H]1CN(c2nccc3scnc23)CC12CN(C(=O)[C@H]1CC1(C)C)C2)C(=O)N1CCCCC1 [Compound I-10, (S)-N-((2S,3R)-3-(cyclohexylmethoxy)-1-oxo-1-(piperidin-1-yl)butan-2-yl)-2-((S)-2,2-dimethylcyclopropanecarbonyl)-6-(thiazolo[4,5-c]pyridin-4-yl)-2,6-diazaspiro[3.4]octane-8-carboxamide]",5 to 20 µM,> 10 µM
–,> 10 µM,"C[C@@H](OCC12CCC(CC1)OC2)[C@H](NC(=O)[C@@H]1CN(C(=O)c2cncs2)CC12CN(c1ncco1)C2)C(C)(C)O [Compound I-3, (S)-N-((3S,4R)-4-(2-oxabicyclo[2.2.2]octan-4-ylmethoxy)-2-hydroxy-2-methylpentan-3-yl)-2-(oxazol-2-yl)-6-(thiazole-5-carbonyl)-2,6-diazaspiro[3.4]octane-8-carboxamide]",> 20 µM,> 10 µM
–,0.1 to 1 µM,"CNC(=O)[C@@H](NC(=O)[C@@H]1CN(C(=O)c2cnn(Cc3ccccc3)c2)CC12CN(c1ncco1)C2)[C@@H](C)OCC1CCCCC1 [Compound I-2, (S)-6-(1-benzyl-1H-pyrazole-4-carbonyl)-N-((2S,3R)-3-(cyclohexylmethoxy)-1-(methylamino)-1-oxobutan-2-yl)-2-(oxazol-2-yl)-2,6-diazaspiro[3.4]octane-8-carboxamide]",> 20 µM,> 10 µM

# Further lines, the molecule ahead of its results:
Compound,IC50 (CDK2/Cyclin E1 [2]),IC50 (CDK2/Cyclin E1 [3]),IC50 [1],IC50 (Kuramochi cells)
"C[C@@H](OCC12CCC(CC1)OC2)[C@H](NC(=O)[C@@H]1CN(c2cc(F)cc3ncoc23)CC12CN(C(=O)C1(C(F)(F)F)CC1)C2)C(=O)N1CCC(c2nccs2)CC1 [Compound I-52, (S)-N-((2S,3R)-3-((2-oxabicyclo[2.2.2]octan-4-yl)methoxy)-1-oxo-1-(4-(thiazol-2-yl)piperidin-1-yl)butan-2-yl)-6-(5-fluorobenzo[d]oxazol-7-yl)-2-(1-(trifluoromethyl)cyclopropane-1-carbonyl)-2,6-diazaspiro[3.4]octane-8-carboxamide]",5 to 10 µM,–,5 to 20 µM,–
"C[C@@H](OCC12CCC(CC1)OC2)[C@H](NC(=O)[C@@H]1CN(c2cc(F)cc3ncsc23)CC12CN(C(=O)C1(C(F)(F)F)CC1)C2)C(=O)N1CCC(c2nccs2)CC1 [Compound I-48, (S)-N-((2S,3R)-3-((2-oxabicyclo[2.2.2]octan-4-yl)methoxy)-1-oxo-1-(4-(thiazol-2-yl)piperidin-1-yl)butan-2-yl)-6-(5-fluorobenzo[d]thiazol-7-yl)-2-(1-(trifluoromethyl)cyclopropane-1-carbonyl)-2,6-diazaspiro[3.4]octane-8-carboxamide]",0.5 to 5 µM,–,0.5 to 5 µM,–
"C[C@@H](OCC12CCC(CC1)OC2)[C@@H](COC1CCC(c2ccc(C(=O)O)cc2)CC1)NC(=O)[C@@H]1CN(c2cc(F)cc3ncsc23)CC12CN(C(=O)C1(C(F)(F)F)CC1)C2 (stereo partly drawn) [Compound I-47, 4-(4-((2R,3R)-3-((2-oxabicyclo[2.2.2]octan-4-yl)methoxy)-2-((S)-6-(5-fluorobenzo[d]thiazol-7-yl)-2-(1-(trifluoromethyl)cyclopropane-1-carbonyl)-2,6-diazaspiro[3.4]octane-8-carboxamido)butoxy)cyclohexyl)benzoic acid]",> 10 µM,–,5 to 20 µM,–
"C[C@@H](OCC12CCC(CC1)OC2)[C@H](NC(=O)[C@@H]1CN(c2cc(F)cc3ncsc23)CC12CN(C(=O)C1(C(F)(F)F)CC1)C2)C(=O)N1CCC2(CC1)COC2 [Compound I-46, (S)-N-((2S,3R)-3-(2-oxabicyclo[2.2.2]octan-4-ylmethoxy)-1-oxo-1-(2-oxa-7-azaspiro[3.5]nonan-7-yl)butan-2-yl)-6-(5-fluorobenzo[d]thiazol-7-yl)-2-(1-(trifluoromethyl)cyclopropanecarbonyl)-2,6-diazaspiro[3.4]octane-8-carboxamide]",> 10 µM,–,> 20 µM,–
"C[C@@H](OCC1CCCCC1)[C@H](NC(=O)[C@@H]1CN(c2cccc3scnc23)CC12CN(C(=O)[C@H]1CC1(C)C)C2)C(=O)N1CCCCC1 [Compound I-8, 6-(benzo[d]thiazol-4-yl)-N-((2S,3R)-3-(cyclohexylmethoxy)-1-oxo-1-(piperidin-1-yl)butan-2-yl)-2-((S)-2,2-dimethylcyclopropanecarbonyl)-2,6-diazaspiro[3.4]octane-8-carboxamide]",–,> 10 µM,> 20 µM,5 to 10 µM
"C[C@@H](OCC1CCCCC1)[C@H](NC(=O)[C@@H]1CN(c2cccc3ncsc23)CC12CN(C(=O)[C@H]1CC1(C)C)C2)C(=O)N1CCCCC1 [Compound I-7, (S)-6-(benzo[d]thiazol-7-yl)-N-((2S,3R)-3-(cyclohexylmethoxy)-1-oxo-1-(piperidin-1-yl)butan-2-yl)-2-((S)-2,2-dimethylcyclopropanecarbonyl)-2,6-diazaspiro[3.4]octane-8-carboxamide]",–,0.1 to 1 µM,> 20 µM,5 to 10 µM

# — patent publication US20260014146A1, “CDK2 INHIBITORS AND METHODS OF USING THE SAME” (Cedilla Therapeutics, Inc., priority 2022, published 2026)
